The subject of data set [1] is herpes simplex. As to the kind of experiment: Activity against herpes simplex (general statement). Also noted: species or system herpes simplex virus.
The test system of data set [2] is herpes simplex virus. As to the kind of experiment: Anti-HSV activity, plaque reduction assay. Type of data set: cell-based. The protocol: The inhibiting effect of the compounds of Example 1 and 2 against herpes simplex virus were determined by the plaque reduction assay.
In data set [3] the test system is CMV. As to the kind of experiment: Activity against CMV infections (general statement). Further details: species or system cytomegalovirus.
In data set [4] the test system is EBV. As to the kind of experiment: Activity against EBV infections (general statement). Further details: species or system Epstein-Barr virus.
Data set [5] has as its system dogs. As to the kind of experiment: Toxicity in dogs, intravenous route. Type of data set: in vivo, dog. The settings on record: 60 mg/kg/day. As for the experimental part:
The toxicity of the compound of Example 2 was determined by administering the compound to dogs at a dosage of 60 mg/kg/day, by the intravenous route.

Data set [6] has as its system EBV. As to the kind of experiment: Anti-EBV activity (method described by Nonogama l. Pagano, 1971). It counts as cell-based, Epstein-Barr virus. The settings on record: human gammaherpesvirus 4. As for the experimental part: The inhibitory effect of the compound of Example 2 against EBV was determined by the method described by Nonogama l. Pagano, 1971, Nature: New Biology, Vol. 233, 103-104.

The subject of data set [7] is herpes simplex. The conditions noted are these: prior art compound; cited from earlier work.

Read-outs that look alike come from different tables or passages of the source.

As to `Nc1nc2c(nc(N)n2COC(CO)CO)c(=O)[nH]1` [Example 1, 8-Amino-9-[(2-hydroxy-1-hydroxymethylethoxy)methyl]guanine], the “activity against herpes simplex” value in data set [1] is on record as “particularly high activity”. This compound also returned an IC50 in data set [2] of 0.5 µM.
Regarding `Nc1nc2c(nnn2COC(CO)CO)c(=O)[nH]1` [Example 2, 5-Amino-3,6-dihydro-3-[(2-hydroxy-1-hydroxymethylethoxy)methyl]-7H-1,2,3-triazolo[4,5-d]pyrimidin-7-one], in data set [3], the “activity against CMV infections” value is “especially potent activity”. Further, in data set [4], the “activity against EBV infections” value is recorded as “especially potent activity”. Besides, the IC50 in data set [2] was 27.4 µM; in data set [6], 1 to 10 µM. In addition, the toxic effects result in data set [5] is given as “No toxic effects were noted”.
Consider `Nc1nc2c(ncn2COCCO)c(=O)[nH]1` [acyclovir, 9-(2-hydroxyethoxymethyl)guanine], for which the “activity against herpes simplex” value in data set [7] is given as “particularly good activity”.

These data come from US4714701A, “Antiviral compounds” (Burroughs Wellcome Co., priority 1985, dated 1987).
